Measurements as given in ChEMBL document CHEMBL2073926, “Cloning and functional expression of a mouse liver organic cation transporter” (Hepatology, 1999).

Tests used:
[1] = molecular target: T1, Solute carrier family 22 member 1 (Mus musculus, UniProt O08966); assay: in vitro; conditions: xenopus laevis, probe TEA (140 uM)
T1 sequence (O08966 whole entry): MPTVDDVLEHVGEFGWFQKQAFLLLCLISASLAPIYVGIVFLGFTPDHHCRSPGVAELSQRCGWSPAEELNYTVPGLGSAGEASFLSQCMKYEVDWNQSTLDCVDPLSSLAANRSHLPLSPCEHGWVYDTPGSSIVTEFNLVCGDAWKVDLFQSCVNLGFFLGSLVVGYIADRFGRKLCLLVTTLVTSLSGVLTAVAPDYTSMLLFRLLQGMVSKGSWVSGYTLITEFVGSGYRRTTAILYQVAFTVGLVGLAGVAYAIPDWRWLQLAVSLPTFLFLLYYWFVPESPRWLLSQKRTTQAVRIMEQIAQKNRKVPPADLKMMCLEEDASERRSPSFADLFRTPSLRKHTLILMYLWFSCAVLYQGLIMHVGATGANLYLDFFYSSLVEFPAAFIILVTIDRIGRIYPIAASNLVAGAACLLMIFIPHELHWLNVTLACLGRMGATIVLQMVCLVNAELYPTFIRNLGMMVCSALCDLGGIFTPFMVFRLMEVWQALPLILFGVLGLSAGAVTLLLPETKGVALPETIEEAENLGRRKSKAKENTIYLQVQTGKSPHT
Description: TP_TRANSPORTER: inhibition of TEA uptake (TEA: 140 uM, Thiamine: 1000 uM) in Xenopus laevis oocytes

[2] = molecular target: T1, Solute carrier family 22 member 1; assay: TP_TRANSPORTER: inhibition of TEA uptake (TEA: 140 uM, Procainamide: 10000 uM) in Xenopus laevis oocytes; assay type: functional, cell-based, Oocyte; set-up: scale not given: the % may be the effect or the level left; conditions: probe TEA (140 uM), read-out: Activity
[3] = substrate: CC[N+](CC)(CC)CC; assay: cells, lysate or membranes named

## Cc1ncc(C[n+]2csc(CCO)c2C)c(N)n1 [THIAMINE ION]
[1]
  activity at 1000 µM: 12.7%

## CCN(CC)CCNC(=O)c1ccc(N)cc1 [PROCAINAMIDE]
[2]
  activity at 10000 uM: 30.1%

B1: Solute carrier family 22 member 1 (Mus musculus) (protein)
chain: T1 sequence (O08966 whole entry)
[3]
  Km: 38 µM
